ChEMBL document CHEMBL1909046, “DrugMatrix in vitro pharmacology data”

Legend:
[1] = biological target: Beta-2 adrenergic receptor (Homo sapiens, UniProt P07550); assay: DRUGMATRIX: Adrenergic beta2 radioligand binding (ligand: [3H] CGP-12177); format: cell membranes, CHO, Membrane; settings: cho; Not Active = under 50% inhibition at 10 µM
[2] = biological target: T1, Type-2 angiotensin II receptor (Homo sapiens, UniProt P50052); format: cell-based; settings: cho-k1; note: in other assays of this panel Not Active means under 50% inhibition at 10 µM
T1 sequence (P50052 whole entry): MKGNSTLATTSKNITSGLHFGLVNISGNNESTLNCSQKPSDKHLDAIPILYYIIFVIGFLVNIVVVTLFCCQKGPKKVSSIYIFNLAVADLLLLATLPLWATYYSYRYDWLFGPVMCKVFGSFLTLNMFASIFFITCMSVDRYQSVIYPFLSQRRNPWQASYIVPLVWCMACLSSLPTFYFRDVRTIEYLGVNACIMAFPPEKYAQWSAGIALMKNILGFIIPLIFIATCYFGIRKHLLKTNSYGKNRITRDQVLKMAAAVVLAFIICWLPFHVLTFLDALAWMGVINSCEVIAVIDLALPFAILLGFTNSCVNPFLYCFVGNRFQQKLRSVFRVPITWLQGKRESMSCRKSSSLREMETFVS

[3] = DRUGMATRIX: Atrial Natriuretic Factor (ANF) radioligand binding (ligand: [125I] ANF (rat)); format: cell membranes, Cavia porcellus, Dunkin-Hartley, Adrenal gland, Membrane; settings: Not Active = under 50% inhibition at 10 µM
[4] = biological target: T2, Calcitonin receptor (Homo sapiens, UniProt P30988); format: cell membranes, Membrane; settings: t47d; note: in other assays of this panel Not Active means under 50% inhibition at 10 µM
T2 sequence (P30988 whole entry): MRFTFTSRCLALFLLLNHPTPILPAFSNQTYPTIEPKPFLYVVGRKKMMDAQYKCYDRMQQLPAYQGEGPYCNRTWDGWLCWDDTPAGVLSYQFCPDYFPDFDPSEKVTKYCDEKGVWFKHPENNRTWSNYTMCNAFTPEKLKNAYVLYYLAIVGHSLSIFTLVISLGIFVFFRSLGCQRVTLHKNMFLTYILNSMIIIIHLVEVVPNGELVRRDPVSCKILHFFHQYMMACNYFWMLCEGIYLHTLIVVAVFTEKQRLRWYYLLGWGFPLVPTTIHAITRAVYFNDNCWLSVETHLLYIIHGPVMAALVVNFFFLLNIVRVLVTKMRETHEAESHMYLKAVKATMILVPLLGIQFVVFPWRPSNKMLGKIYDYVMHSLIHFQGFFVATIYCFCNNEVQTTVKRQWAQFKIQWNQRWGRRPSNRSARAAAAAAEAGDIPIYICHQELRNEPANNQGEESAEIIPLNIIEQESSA

[5] = biological target: Insulin receptor (Rattus norvegicus, UniProt P15127); format: cell membranes, Wistar, Liver, Membrane; note: in other assays of this panel Not Active means under 50% inhibition at 10 µM
[6] = biological target: T3, Angiotensin-converting enzyme (Oryctolagus cuniculus, UniProt P12822); assay: biochemical; format: tissue-based, Lung;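 note: enzymatic inhibition of angiotensin-converting enzyme measured with FAPGG as the substrate; in other assays of this panel Not Active means under 50% inhibition at 10 µM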
T3 sequence (P12822 whole entry): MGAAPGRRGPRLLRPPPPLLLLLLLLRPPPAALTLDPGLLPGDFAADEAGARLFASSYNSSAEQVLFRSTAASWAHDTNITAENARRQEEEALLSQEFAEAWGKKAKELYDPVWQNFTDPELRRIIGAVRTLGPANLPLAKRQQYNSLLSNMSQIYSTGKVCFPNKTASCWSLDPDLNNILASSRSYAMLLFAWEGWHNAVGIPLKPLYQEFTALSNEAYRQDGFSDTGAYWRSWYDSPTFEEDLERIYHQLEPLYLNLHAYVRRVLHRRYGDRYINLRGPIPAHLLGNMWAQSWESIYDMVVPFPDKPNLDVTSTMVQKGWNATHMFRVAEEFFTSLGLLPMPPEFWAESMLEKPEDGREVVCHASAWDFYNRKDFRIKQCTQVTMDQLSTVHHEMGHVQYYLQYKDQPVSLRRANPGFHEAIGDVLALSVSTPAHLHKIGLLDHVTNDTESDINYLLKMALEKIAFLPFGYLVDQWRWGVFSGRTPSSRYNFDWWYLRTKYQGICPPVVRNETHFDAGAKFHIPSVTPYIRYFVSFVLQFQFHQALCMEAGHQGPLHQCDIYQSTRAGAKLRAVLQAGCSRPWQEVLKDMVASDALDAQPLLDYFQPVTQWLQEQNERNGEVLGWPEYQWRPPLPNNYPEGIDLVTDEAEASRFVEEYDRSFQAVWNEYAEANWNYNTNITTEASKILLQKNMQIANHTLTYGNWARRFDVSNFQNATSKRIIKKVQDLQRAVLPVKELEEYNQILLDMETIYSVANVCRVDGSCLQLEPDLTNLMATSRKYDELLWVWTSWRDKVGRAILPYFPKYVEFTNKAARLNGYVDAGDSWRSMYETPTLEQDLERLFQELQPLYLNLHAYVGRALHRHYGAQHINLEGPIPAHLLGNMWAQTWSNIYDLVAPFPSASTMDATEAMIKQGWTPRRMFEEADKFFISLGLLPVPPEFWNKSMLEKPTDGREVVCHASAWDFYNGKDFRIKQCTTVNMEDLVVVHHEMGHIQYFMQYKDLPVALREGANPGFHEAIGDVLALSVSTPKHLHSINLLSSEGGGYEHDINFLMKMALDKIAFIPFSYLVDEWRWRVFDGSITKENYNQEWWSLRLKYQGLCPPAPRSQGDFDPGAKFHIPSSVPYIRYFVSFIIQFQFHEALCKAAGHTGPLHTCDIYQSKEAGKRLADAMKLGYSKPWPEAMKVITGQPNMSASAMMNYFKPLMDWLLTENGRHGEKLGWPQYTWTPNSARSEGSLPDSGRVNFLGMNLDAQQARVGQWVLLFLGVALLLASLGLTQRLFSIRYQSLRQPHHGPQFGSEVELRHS

[7] = biological target: T4, Estrogen receptor (Homo sapiens, UniProt P03372); settings: sf9; note: in other assays of this panel Not Active means under 50% inhibition at 10 µM
T4 sequence (P03372 whole entry): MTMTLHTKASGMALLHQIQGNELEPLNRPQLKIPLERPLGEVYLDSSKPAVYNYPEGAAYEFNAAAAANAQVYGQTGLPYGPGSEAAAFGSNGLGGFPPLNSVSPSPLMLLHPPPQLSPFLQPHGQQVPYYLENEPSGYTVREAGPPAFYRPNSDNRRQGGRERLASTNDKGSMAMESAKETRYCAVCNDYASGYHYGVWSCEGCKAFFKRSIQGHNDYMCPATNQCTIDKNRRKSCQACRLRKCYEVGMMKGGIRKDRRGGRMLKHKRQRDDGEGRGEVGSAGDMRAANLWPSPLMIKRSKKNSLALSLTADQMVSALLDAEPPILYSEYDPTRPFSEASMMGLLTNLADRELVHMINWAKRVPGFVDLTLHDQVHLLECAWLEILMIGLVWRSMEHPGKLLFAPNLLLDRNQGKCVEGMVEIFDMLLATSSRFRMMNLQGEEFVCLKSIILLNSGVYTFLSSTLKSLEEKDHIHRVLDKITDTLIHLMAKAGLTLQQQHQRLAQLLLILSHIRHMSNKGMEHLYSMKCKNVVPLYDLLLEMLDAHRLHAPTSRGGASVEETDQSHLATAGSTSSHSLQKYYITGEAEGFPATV

Insulin receptor, sequence (P15127 27-759 limits assumed): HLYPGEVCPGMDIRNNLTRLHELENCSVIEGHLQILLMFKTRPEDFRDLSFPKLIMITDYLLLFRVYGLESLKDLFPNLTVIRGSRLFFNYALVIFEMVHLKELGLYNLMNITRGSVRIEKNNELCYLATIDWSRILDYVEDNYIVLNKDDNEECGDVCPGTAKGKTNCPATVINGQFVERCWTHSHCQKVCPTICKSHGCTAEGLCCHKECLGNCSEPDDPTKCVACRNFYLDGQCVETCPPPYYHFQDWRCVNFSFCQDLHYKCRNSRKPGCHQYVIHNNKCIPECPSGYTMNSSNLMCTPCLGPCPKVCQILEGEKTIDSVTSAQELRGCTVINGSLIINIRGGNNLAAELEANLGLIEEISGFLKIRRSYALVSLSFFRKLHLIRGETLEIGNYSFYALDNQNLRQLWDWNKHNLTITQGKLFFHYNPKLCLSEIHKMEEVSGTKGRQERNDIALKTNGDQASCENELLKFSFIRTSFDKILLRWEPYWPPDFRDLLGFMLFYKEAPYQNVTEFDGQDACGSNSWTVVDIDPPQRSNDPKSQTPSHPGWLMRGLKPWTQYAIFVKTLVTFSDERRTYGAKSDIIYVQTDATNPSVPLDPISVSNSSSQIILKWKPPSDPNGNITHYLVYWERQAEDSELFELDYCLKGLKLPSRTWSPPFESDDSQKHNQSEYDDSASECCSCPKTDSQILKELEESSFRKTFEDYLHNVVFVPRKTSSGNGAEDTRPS
Insulin receptor, sequence (P15127 764-1383 limits assumed): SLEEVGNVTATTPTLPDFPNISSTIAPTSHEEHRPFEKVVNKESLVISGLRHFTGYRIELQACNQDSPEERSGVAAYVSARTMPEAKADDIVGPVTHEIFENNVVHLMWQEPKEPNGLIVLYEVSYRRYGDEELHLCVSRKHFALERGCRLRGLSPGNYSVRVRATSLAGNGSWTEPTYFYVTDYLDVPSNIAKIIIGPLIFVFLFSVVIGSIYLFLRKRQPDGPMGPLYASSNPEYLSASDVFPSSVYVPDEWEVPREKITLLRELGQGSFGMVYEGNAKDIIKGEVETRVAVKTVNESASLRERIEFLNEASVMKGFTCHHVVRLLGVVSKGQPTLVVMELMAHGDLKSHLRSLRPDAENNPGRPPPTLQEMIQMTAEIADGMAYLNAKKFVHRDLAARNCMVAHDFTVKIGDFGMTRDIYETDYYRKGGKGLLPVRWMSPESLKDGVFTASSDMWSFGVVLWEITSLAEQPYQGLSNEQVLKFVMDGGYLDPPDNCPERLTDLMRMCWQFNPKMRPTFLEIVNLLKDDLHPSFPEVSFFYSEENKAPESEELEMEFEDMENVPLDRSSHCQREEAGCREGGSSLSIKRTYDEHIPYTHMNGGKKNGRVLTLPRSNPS

O=C(O)c1ccccc1 [BENZOIC ACID]
Not Active: IC50 [1] | IC50 [2] | IC50 [3] | Ki [3] | IC50 [4] | IC50 [5] | IC50 [6] | IC50 [7]

O=C(O)CO [GLYCOLIC ACID]
Not Active: IC50 [1] | IC50 [2] | IC50 [3] | Ki [3] | IC50 [4] | IC50 [5] | IC50 [6] | IC50 [7]

CC(C)Cc1ccc([C@H](C)C(=O)O)cc1 [DEXIBUPROFEN]
Not Active: IC50 [1] | IC50 [2] | IC50 [3] | Ki [3] | IC50 [4] | IC50 [5] | IC50 [6] | IC50 [7]

O=c1[nH]cnc2c1ncn2[C@H]1CC[C@@H](CO)O1 [DIDANOSINE]
Not Active: IC50 [1] | IC50 [2] | IC50 [3] | Ki [3] | IC50 [4] | IC50 [5] | IC50 [6] | IC50 [7]

CC1(COc2ccc(CC3SC(=O)NC3=O)cc2)CCCCC1 (stereo not given) [CIGLITAZONE]
Not Active: IC50 [1] | IC50 [2] | IC50 [3] | Ki [3] | IC50 [4] | IC50 [5] | IC50 [6] | IC50 [7]

CC(=O)Nc1ccc2c(c1)Cc1ccccc1-2 [2-ACETYLAMINOFLUORENE]
Not Active: IC50 [1] | IC50 [2] | IC50 [3] | Ki [3] | IC50 [4] | IC50 [5] | IC50 [6] | IC50 [7]

C[C@H](C(=O)O)c1ccc2oc(-c3ccc(F)cc3)nc2c1 [FLUNOXAPROFEN]
Not Active: IC50 [1] | IC50 [2] | IC50 [3] | Ki [3] | IC50 [4] | IC50 [5] | IC50 [6] | IC50 [7]

CC(C)Cn1cnc2c(N)nc3ccccc3c21 [IMIQUIMOD]
Not Active: IC50 [1] | IC50 [2] | IC50 [3] | Ki [3] | IC50 [4] | IC50 [5] | IC50 [6] | IC50 [7]

OC[C@H]1OC2C3[C@@H](CO)OC(O[C@H]4[C@H](O)[C@@H](O)[C@@H](O[C@H]5[C@H](O)[C@@H](O)[C@@H](O[C@H]6[C@H](O)[C@@H](O)[C@@H](O[C@H]7[C@H](O)[C@@H](O)[C@@H](O[C@H]8[C@H](O)[C@@H](O)[C@@H](O[C@H]9[C@H](O)[C@@H](O)C(OC1[C@H](O)[C@H]2O)O[C@@H]9CO)O[C@@H]8CO)O[C@@H]7CO)O[C@@H]6CO)O[C@@H]5CO)O[C@@H]4CO)[C@H](O)[C@H]3O
Not Active: IC50 [1] | IC50 [2] | IC50 [3] | Ki [3] | IC50 [4] | IC50 [5] | IC50 [6] | IC50 [7]

POVIDONE
Not Active: IC50 [1] | Ki [1] | IC50 [2] | Ki [2] | IC50 [3] | Ki [3] | IC50 [4] | Ki [4] | IC50 [5] | Ki [5] | IC50 [6] | Ki [6] | IC50 [7] | Ki [7]

C=C(Cl)Cl [1,1-DICHLOROETHENE]
Not Active: IC50 [1] | IC50 [2] | IC50 [3] | Ki [3] | IC50 [4] | IC50 [5] | IC50 [6] | IC50 [7]

C=CCN1CC[C@]23c4c5ccc(O)c4O[C@H]2/C(=N/N=C2\CC[C@@]4(O)[C@H]6Cc7ccc(O)c8c7[C@@]4(CCN6CC=C)[C@H]2O8)CC[C@@]3(O)[C@H]1C5 [NALOXONAZINE]
Not Active: IC50 [1] | IC50 [2] | IC50 [3] | Ki [3] | IC50 [4] | IC50 [5] | IC50 [6] | IC50 [7]

Oc1ncnc2[nH]ncc12 [ALLOPURINOL]
Not Active: IC50 [1] | IC50 [2] | IC50 [3] | Ki [3] | IC50 [4] | IC50 [5] | IC50 [6] | IC50 [7]
